What was measured:
Assay type in all cases: physicochemical
[1] = In vitro dissolution test of Drug 1 compositions in PBS pH 6.5, room temperature, 0.45 μm syringe filter, UV; 50 μg/mL if all drug dissolved
Protocol: Example 1 consisted of Adsorbate 1 administered in solution with a lipophilic microphase-forming material. At time 0, a 4 mg sample of Adsorbate 1 was added to 40 mL phosphate buffered saline (PBS) at pH 6.5 and 290 mOsm/kg, containing 1 mg/mL of the lipophilic microphase-forming material Cremaphor RH40 (available from BASF of Mount Olive, N.J.). The concentration of drug would have been 50 μg/mL, if all of the drug had dissolved. The test solution was stirred at room temperature in a syringe equipped with a Gelman Acrodisc 13 CR 0.45 μm PTFE filter. At each sample time, 1 to 2 mL test solution was pushed through the filter and analyzed using UV to determine the concentration of Drug 1 in solution. Samples were collected at 0.5, 1, 2, 3, 5, 10, 15, 20, 30, 45, 60, 90, 120, 150, 250 and 1200 minutes.
Control 1 consisted of Adsorbate 1 administered into PBS without the lipophilic microphase-forming material, and a sufficient amount of adsorbate was added so that the concentration of drug would have been 50 μg/mL, if all of the drug had dissolved. An in vitro dissolution test was performed with Control 1 using the procedures outlined for Example 1 and the results are shown in Table 1.
Control 2 consisted of crystalline Drug 1 administered into PBS containing 1 mg/mL of the lipophilic microphase-forming material Cremophor RH40, and a sufficient amount of Drug 1 was added so that the concentration would have been 50 μg/mL, if all of the drug had dissolved. An in vitro dissolution test was performed with Control 2 using the procedures outlined for Example 1 and the results are shown in Table 1.
Control 3 consisted of crystalline Drug 1 administered into PBS without the lipophilic microphase-forming material, and a sufficient amount of crystalline Drug 1 was added so that the concentration of drug would have been 50 μg/mL, if all of the drug had dissolved. An in vitro dissolution test was performed with Control 3 using the procedures outlined for Example 1 and the results are shown in Table 1.
Example 2 consisted of Adsorbate 1 administered in solution with a different lipophilic microphase-forming material. At time 0, a 4 mg sample of Adsorbate 1 was added to 40 mL phosphate buffered saline (PBS) at pH 6.5 and 290 mOsm/kg, containing 1 mg/mL of 5/2 (wt/wt) Cremaphor RH40/Capmul MCM (available from Abitec of Janesville, Wis.); the concentration of drug would have been 50 μg/mL, if all of the drug had dissolved. The test solution was stirred at room temperature in a syringe equipped with a Gelman Acrodisc 13 CR 0.45 μm PTFE filter, as described for Example 1. Samples were collected and analyzed using UV to determine the concentration of Drug 1 in solution.
Control 4 consisted of crystalline Drug 1 administered into PBS containing 5/2 (wt/wt) Cremophor RH40/Capmul MCM, and a sufficient amount of Drug 1 was added so that the concentration would have been 50 μg/mL, if all of the drug had dissolved.

[2] = In vitro dissolution test of Drug 2 compositions in PBS pH 6.5, room temperature, 0.45 μm syringe filter, UV; 50 μg/mL if all drug dissolved
Protocol: Example 3 consisted of Adsorbate 2 administered into solution with a lipophilic microphase-forming material. At time 0, a 6.656 mg sample of Adsorbate 2 was added to 40 mL of phosphate buffered saline (PBS) at pH 6.5 and 290 mOsm/kg, containing 1 mg/mL of PEG 6000 distearate (the concentration of drug would have been 50 μg/mL, if all of the drug had dissolved). The test solution was stirred at room temperature in a syringe equipped with a Gelman Acrodisc 13 CR 0.45 μm PTFE filter, as described for Example 1. Samples were collected and analyzed using UV to determine the concentration of Drug 2 in solution.
Control 5 consisted of Adsorbate 2 administered into PBS without the lipophilic microphase-forming material, and a sufficient amount of sample was added so that the concentration of drug would have been 50 μg/mL, if all of the drug had dissolved.
Control 6 consisted of crystalline Drug 2 administered into PBS containing PEG 6000 Distearate, and a sufficient amount of Drug 2 was added so that the concentration would have been 50 μg/mL, if all of the drug had dissolved.
Control 7 consisted of crystalline Drug 2 administered into PBS without the lipophilic microphase-forming material, and a sufficient amount of sample was added so that the concentration of drug would have been 50 μg/mL, if all of the drug had dissolved.

[3] = In vitro dissolution test of Drug 3 compositions (Example 4 in MOPS buffer pH 7.4, controls given as PBS), room temperature, 0.45 μm syringe filter, UV; 50 μg/mL if all drug dissolved
Protocol: Example 4 consisted of Adsorbate 3 administered into solution with a lipophilic microphase-forming material. At time 0, an 8.02 mg sample of Adsorbate 3 was added to 40 ml of 50 mM 3-(4-morpholino propane sulfonic acid) sodium salt (MOPS) buffer at pH 7.4, containing 5 mg/mL of Tween 80 (available from ICI Americas Inc); the concentration of drug would have been 50 μg/mL, if all of the drug had dissolved. The test solution was stirred at room temperature in a syringe equipped with a Gelman Acrodisc 13 CR 0.45 μm PTFE filter, as described for Example 1. Samples were collected and analyzed using UV to determine the concentration of Drug 3 in solution.
Control 8 consisted of Adsorbate 3 administered into PBS without the lipophilic microphase-forming material, and a sufficient amount of sample was added so that the concentration of drug would have been 50 μg/mL, if all of the drug had dissolved.
Control 9 consisted of crystalline Drug 3 administered into PBS containing Tween 80, and a sufficient amount of Drug 3 was added so that the concentration would have been 50 μg/mL, if all of the drug had dissolved.
Control 10 consisted of crystalline Drug 3 administered into PBS without the lipophilic microphase-forming material, and a sufficient amount of sample was added so that the concentration of drug would have been 50 μg/mL, if all of the drug had dissolved.

For `CCOC(=O)N1c2ccc(C(F)(F)F)cc2[C@@H](N(Cc2cc(C(F)(F)F)cc(C(F)(F)F)c2)C(=O)OC)C[C@H]1CC` [Control 3, [2R,4S] 4-[(3,5-bis-trifluoromethyl-benzyl)-methoxycarbonyl-amino]-2-ethyl-6-trifluoromethyl-3,4-dihydro-2H-quinoline-1-carboxylic acid ethyl ester], the AUC90 ([1]; Drug 1, area under the aqueous concentration versus time curve after 90 minutes) was less than 45 µg·min/mL, the AUC ([1]; Drug 1, time 0 min) was 0 µg·min/mL and the AUC ([1]; Drug 1, time 1 min) was less than 1 µg·min/mL. For the same molecule, the AUC ([1]; Drug 1, time 3 min) was less than 2 µg·min/mL, the AUC ([1]; Drug 1, time 5 min) was less than 3 µg·min/mL and the AUC ([1]; Drug 1, time 10 min) was less than 5 µg·min/mL. The AUC ([1]; Drug 1, time 15 min) was less than 8 µg·min/mL, the AUC ([1]; Drug 1, time 20 min) was less than 10 µg·min/mL and the AUC ([1]; Drug 1, time 30 min) was less than 15 µg·min/mL. The AUC ([1]; Drug 1, time 45 min) was less than 23 µg·min/mL, the AUC ([1]; Drug 1, time 60 min) was less than 30 µg·min/mL and the AUC ([1]; Drug 1, time 90 min) was less than 45 µg·min/mL. The AUC ([1]; Drug 1, time 120 min) was less than 60 µg·min/mL, the AUC ([1]; Drug 1, time 1200 min) was less than 600 µg·min/mL and the MDC90 ([1]; maximum concentration of Drug 1 in solution during the first 90 minutes) was less than 0.5 µg/mL. For the same molecule, the “Drug 1 Concentration” value ([1]; time 0 min) was less than 0.5 µg/mL, the “Drug 1 Concentration” value ([1]; time 1 min) was less than 0.5 µg/mL and the “Drug 1 Concentration” value ([1]; time 3 min) was less than 0.5 µg/mL. The “Drug 1 Concentration” value ([1]; time 5 min) was less than 0.5 µg/mL, the “Drug 1 Concentration” value ([1]; time 10 min) was less than 0.5 µg/mL and the “Drug 1 Concentration” value ([1]; time 15 min) was less than 0.5 µg/mL. The “Drug 1 Concentration” value ([1]; time 20 min) was less than 0.5 µg/mL, the “Drug 1 Concentration” value ([1]; time 30 min) was less than 0.5 µg/mL and the “Drug 1 Concentration” value ([1]; time 45 min) was less than 0.5 µg/mL. The “Drug 1 Concentration” value ([1]; time 60 min) was less than 0.5 µg/mL, the “Drug 1 Concentration” value ([1]; time 90 min) was less than 0.5 µg/mL and the “Drug 1 Concentration” value ([1]; time 120 min) was less than 0.5 µg/mL. The “Drug 1 Concentration” value ([1]; time 1200 min) was less than 0.5 µg/mL.
Molecule `CC[C@@H]1C[C@H](N(Cc2cc(C(F)(F)F)cc(C(F)(F)F)c2)C(=O)OC)c2cc(C(F)(F)F)ccc2N1C(=O)OC(C)C` [Control 7, [2R,4S] 4-[(3,5-bis-trifluoromethyl-benzyl)-methoxycarbonyl-amino]-2-ethyl-6-trifluoromethyl-3,4-dihydro-2H-quinoline-1-carboxylic acid isopropyl ester] has an AUC90 ([2]; Drug 2, area under the aqueous concentration versus time curve after 90 minutes) of less than 45 µg·min/mL, an AUC ([2]; Drug 2, time 0 min) of 0 µg·min/mL and an AUC ([2]; Drug 2, time 1 min) of less than 1 µg·min/mL. The AUC ([2]; Drug 2, time 2 min) was less than 1 µg·min/mL, the AUC ([2]; Drug 2, time 3 min) was less than 2 µg·min/mL and the AUC ([2]; Drug 2, time 5 min) was less than 3 µg·min/mL. The AUC ([2]; Drug 2, time 10 min) was less than 5 µg·min/mL, the AUC ([2]; Drug 2, time 15 min) was less than 8 µg·min/mL and the AUC ([2]; Drug 2, time 20 min) was less than 10 µg·min/mL. The AUC ([2]; Drug 2, time 30 min) was less than 15 µg·min/mL, the AUC ([2]; Drug 2, time 45 min) was less than 23 µg·min/mL and the AUC ([2]; Drug 2, time 64 min) was less than 32 µg·min/mL. For the same molecule, the AUC ([2]; Drug 2, time 90 min) was less than 45 µg·min/mL, the AUC ([2]; Drug 2, time 160 min) was less than 80 µg·min/mL and the AUC ([2]; Drug 2, time 1200 min) was less than 600 µg·min/mL. The MDC90 ([2]; maximum concentration of Drug 2 in solution during the first 90 minutes) was less than 0.5 µg/mL, the “Drug 2 Concentration” value ([2]; time 0 min) was less than 0.5 µg/mL and the “Drug 2 Concentration” value ([2]; time 1 min) was less than 0.5 µg/mL. For the same molecule, the “Drug 2 Concentration” value ([2]; time 2 min) was less than 0.5 µg/mL, the “Drug 2 Concentration” value ([2]; time 3 min) was less than 0.5 µg/mL and the “Drug 2 Concentration” value ([2]; time 5 min) was less than 0.5 µg/mL. The “Drug 2 Concentration” value ([2]; time 10 min) was less than 0.5 µg/mL, the “Drug 2 Concentration” value ([2]; time 15 min) was less than 0.5 µg/mL and the “Drug 2 Concentration” value ([2]; time 20 min) was less than 0.5 µg/mL. For the same molecule, the “Drug 2 Concentration” value ([2]; time 30 min) was less than 0.5 µg/mL, the “Drug 2 Concentration” value ([2]; time 45 min) was less than 0.5 µg/mL and the “Drug 2 Concentration” value ([2]; time 64 min) was less than 0.5 µg/mL. For the same molecule, the “Drug 2 Concentration” value ([2]; time 90 min) was less than 0.5 µg/mL, the “Drug 2 Concentration” value ([2]; time 160 min) was less than 0.5 µg/mL and the “Drug 2 Concentration” value ([2]; time 1200 min) was less than 0.5 µg/mL.
With `O=C1Cc2cc(CCN3CCN(c4nsc5ccccc45)CC3)c(Cl)cc2N1` [Control 10] the AUC90 ([3]; Drug 3, area under the aqueous concentration versus time curve after 90 minutes) was less than 90 µg·min/mL, the AUC ([3]; Drug 3, time 0 min) was less than 1 µg·min/mL and the AUC ([3]; Drug 3, time 5 min) was less than 5 µg·min/mL. The AUC ([3]; Drug 3, time 10 min) was less than 10 µg·min/mL, the AUC ([3]; Drug 3, time 20 min) was less than 20 µg·min/mL and the AUC ([3]; Drug 3, time 40 min) was less than 40 µg·min/mL. For the same molecule, the AUC ([3]; Drug 3, time 90 min) was less than 90 µg·min/mL, the AUC ([3]; Drug 3, time 1260 min) was less than 1260 µg·min/mL and the MDC90 ([3]; maximum concentration of Drug 3 in solution during the first 90 minutes) was less than 1 µg/mL. The “Drug 3 Concentration” value ([3]; time 0 min) was less than 1 µg/mL, the “Drug 3 Concentration” value ([3]; time 5 min) was less than 1 µg/mL and the “Drug 3 Concentration” value ([3]; time 10 min) was less than 1 µg/mL. The “Drug 3 Concentration” value ([3]; time 20 min) was less than 1 µg/mL, the “Drug 3 Concentration” value ([3]; time 40 min) was less than 1 µg/mL and the “Drug 3 Concentration” value ([3]; time 90 min) was less than 1 µg/mL. For the same molecule, the “Drug 3 Concentration” value ([3]; time 1260 min) was less than 1 µg/mL.

Reference: patent publication US9023393B2, “Pharmaceutical compositions of adsorbates of amorphous drugs and lipophilic microphase-forming materials” (Bend Research, Inc., priority 2003, dated 2015)
